Legend:
M. javanica [1] = test: Nematicidal activity of fatty acid methyl ester emulsions against root knot nematode J2 larvae (Example 6); type: cell-based, Meloidogyne javanica; conditions: 0.1% emulsion; 48 hours incubation, counted about 24 hours after transfer to plates
Experimental: (§1) Fatty acid methyl ester emulsions were prepared following the teachings of Kim et al (U.S. Pat. No. 5,698,592). Briefly, 1 ml 1% stock solution emulsions were prepared by mixing 10 μl of fatty acid methyl ester with 20 μl of the surfactant Igepal CO 630 in a 1.5 ml eppendorf tube. After careful mixing of fatty acid and Igepal CO 630, 850 μl of ddH20 was added and mixed by gentle pipetting until a homogeneous solution was obtained. Finally, 120 μl of pure isopropanol was added and mixed by gentle pipetting. This stock solution was then used to produce various fatty acid methyl ester dilution emulsions in 24-well plate assays.
(§2) Meloidogyne incognita and javanica were prepared from tomato roots. The roots were bleached and the debris was separated from the J2 larvae and eggs by filtration followed by sucrose density gradient centrifugation. Eggs were hatched over 4 days at 15° C. and the J2 larvae were collected by passage though a filter, followed by centrifugation.
(§3) Nematodes and emulsions were incubated with shaking at room temperature for 48 hours. The contents of each well were transferred to a small spot on individual NGM plates lacking bacteria. About 24 hours after the transfer to plates, worms on and off the inoculation spot were counted as not viable or viable, respectively. Worms were considered viable if they had crawled away from the inoculation spot, or if they were moving. Worms were considered non-viable if they remained at the inoculation spot.

H. glycines = test: Nematicidal activity of fatty acid methyl ester emulsions, spectrum (Example 8); type: cell-based, Heterodera glycines; conditions: H. glycines 2nd stage juveniles, scored at 48 hours
Experimental: (§4) Briefly, the indicated fatty acid emulsions were added and rapidly mixed by swirling. Nematode viability was scored by visual observation and motility assays 24 hours following addition of emulsions (48 hours for plant parasitic nematodes Meloidogyne and Heterodera species). The fatty acid emulsions tested were methyl esters of nonanoic (pelargonic) acid, ricinelaidic acid, ricinoleic acid, vernolic acid, linoleic acid, and oleic acid. […] Results shown are mean % values obtained from multiple independent experiments
(§5) The Caenorhabiditis elegans were mixed stage populations. Similar effects seen on several other free-living nematode species. The Parastrongyloides trichosuri (parasite of Australian bushtail possum) were dauer-like infective 3rd stage larva. Similar effects are also seen against free-living stages. The Meloidogyne incognita and Meloidogyne javanica (root knot nematode) were 2nd stage juveniles (dauer-like infective stage). The Heterodera glycines (soybean cyst nematode) were 2nd stage juveniles (dauer-like infective stage). Finally, the Pratylenchus scribneri (corn lesion nematode) were mixed stage populations.

M. incognita [2] = test: Nematicidal activity of fatty acid methyl ester emulsions against root knot nematode J2 larvae (Example 6); type: cell-based, Meloidogyne incognita; conditions: 0.1% emulsion; 48 hours incubation, counted about 24 hours after transfer to plates
Experimental: as §1, §2, §3

P. scribneri = test: Nematicidal activity of fatty acid methyl ester emulsions, spectrum (Example 8); type: cell-based, Pratylenchus scribneri; conditions: P. scribneri mixed stage
Experimental: as §4, §5

C. elegans [3] = test: Nematicidal activity of single fatty acid methyl ester emulsions against Caenorhabditis elegans (Example 4); type: cell-based
Experimental: Mixed stage Caenorhabditis elegans were washed off plates seeded with OP50 bacteria using M9 solution. 250 μl of the M9 solution, which contained about 50 worms, was pipetted into each well of a 24-well plate.
as §1
To each well, fatty acid emulsions or control emulsions were added and rapidly mixed by swirling. Nematode viability was scored by visual observation and motility assays at various time points 24 hours following addition of emulsions or controls. The fatty acid emulsions tested were methyl esters of nonanoic (pelargonic) acid, ricinoleic acid, vernolic acid, linoleic acid, oleic acid, and control emulsions lacking fatty acids.

M. incognita [4] = test: Nematicidal activity of fatty acid methyl ester emulsions, spectrum (Example 8); type: cell-based, Meloidogyne incognita; conditions: M. incognita 2nd stage juveniles, scored at 48 hours
Experimental: as §4, §5

[5] = system: root knot nematodes (Meloidogyne spp.); test: Nematicidal activity against root knot nematodes, summary statement; type: cell-based; conditions: concentration of 0.1%
Experimental: as §2, §3

B. malayi = test: Nematicidal activity of tween-based emulsions against microfilarial nematodes; type: cell-based, Brugia malayi
Experimental: To each well, tween-based fatty acid emulsions were added and rapidly mixed by swirling. Nematode microfilaria viability was scored by visual observation of motility at 24 and 48 hours following addition of emulsions. The fatty acid emulsions tested were methyl esters of ricinoleic acid, vernolic acid, ricinelaidic acid, oleic acid, and control emulsions lacking fatty acids. The results of this study are presented in Table 7 as the percentage of non-motile microfilaria 24 hours after inoculation and in Table 8 as the percentage of non-motile microfilaria 48 hours after inoculation

M. javanica [6] = test: Nematicidal activity of fatty acid methyl ester emulsions, spectrum (Example 8); type: cell-based, Meloidogyne javanica; conditions: M. javanica 2nd stage juveniles, scored at 48 hours
Experimental: as §4, §5

C. elegans [7] = test: as above; type: cell-based, Caenorhabditis elegans; conditions: C. elegans mixed stage
Experimental: as §4, §5

P. trichosuri = test: as above; type: cell-based, Parastrongyloides trichosuri; conditions: P. trichosuri infective 3rd stage larva
Experimental: as §4, §5

C. elegans [8] = test: Nematicidal activity of emulsions made with Tween-20 (replacing Igepal CO 630) against C. elegans; type: cell-based, Caenorhabditis elegans; conditions: Tween-20 emulsion
Experimental: Some nematodes assayed as described in Example 9 lacked tolerance to emulsions made with the surfactant Igepal CO 630. For this reason some assays were repeated with Tween-20-based emulsions.
Briefly, 1 ml 1% stock solution emulsions were prepared by mixing 10 μl of fatty acid methyl ester with 20 μl of the surfactant Tween-20 in a 1.5 ml eppendorf tube. After careful mixing of fatty acid and Tween-20, 850 μl of ddH20 was added and mixed by gentle pipetting until a homogeneous solution was obtained. Finally, 120 μl of pure isopropanol was added and mixed by gentle pipetting. This stock solution was then used to produce various fatty acid methyl ester dilution emulsions in 24-well plate assays.

tomato seedlings = test: Phytotoxicity evaluation on tomato seedlings; type: in vivo; conditions: for Phytotoxic effect on tomato seedlings: 1% emulsion
Experimental: Sterilized tomato seeds were germinated in magenta jars containing Gamborg's agar media. After two weeks of growth, seedlings were treated with 250 μl of 1% fatty acid methyl ester emulsion (nonanoic acid, ricinoleic acid, ricinelaidic acid, oleic acid, or a control emulsion lacking any fatty acid), applied directly to the stem-media interface. Tomato seedlings were scored at various times after application of emulsions.

| SMILES | M. javanica (% not viable) (M. javanica [1]) | % Worm Death (24 hr) (H. glycines; 0.01% solution) | % Worm Death (24 hr) (H. glycines; 0.1% solution) | M. incognita (% not viable) (M. incognita [2]) | % Worm Death (24 hr) (P. scribneri; 0.01% solution) | % Worm Death (24 hr) (P. scribneri; 0.1% solution) | Percentage of Worm Death (C. elegans [3]; 0.003% emulsion, 1 hr) | Percentage of Worm Death (C. elegans [3]; 0.003% emulsion, 6 hr) | Percentage of Worm Death (C. elegans [3]; 0.003% emulsion, 24 hr) | Percentage of Worm Death (C. elegans [3]; 0.1% emulsion, 1 hr) | Percentage of Worm Death (C. elegans [3]; 0.1% emulsion, 6 hr) | Percentage of Worm Death (C. elegans [3]; 0.1% emulsion, 24 hr) | % Worm Death (24 hr) (M. incognita [4]; 0.1% solution) | Nematicidal activity (in words) [5] | % Worm Death (48 hr) (M. javanica [6]; 0.1% solution) | % Worm Death (24 hr) (C. elegans [7]; 0.001% solution) | % Worm Death (24 hr) (C. elegans [7]; 0.01% solution) | % Worm Death (24 hr) (C. elegans [7]; 0.1% solution) | further results |
| --- | --- | --- | --- | --- | --- | --- | --- | --- | --- | --- | --- | --- | --- | --- | --- | --- | --- | --- | --- |
| CCCCC[C@H]1O[C@H]1C/C=C\CCCCCCCC(=O)OC [Vernolic Acid (C18-methyl ester), (12,13)-epoxy-cis-9-octadecenoic acid methyl ester] | 90% | 20% | 30% | 100% | <20% | <20% | 20% | 20% | 20% | 65% | 65% | 75% | 98% | significant nematicidal activity | 90% | 30% | 50% | 80% | % Worm Death (24 hr) (H. glycines; 0.001% solution): 18%; % Worm Death (24 hr) (M. incognita [4]; 0.01% solution): 73%; percentage of non-motile microfilaria (B. malayi; 24 hrs post-inoculation, 0.0008%): 0%; percentage of non-motile microfilaria (B. malayi; 24 hrs post-inoculation, 0.0016%): 0%; percentage of non-motile microfilaria (B. malayi; 24 hrs post-inoculation, 0.003%): 0%; percentage of non-motile microfilaria (B. malayi; 24 hrs post-inoculation, 0.005%): 66%; percentage of non-motile microfilaria (B. malayi; 24 hrs post-inoculation, 0.0067%): 100%; percentage of non-motile microfilaria (B. malayi; 24 hrs post-inoculation, 0.008%): 100%; percentage of non-motile microfilaria (B. malayi; 48 hrs post-inoculation, 0.0008%): 0%; percentage of non-motile microfilaria (B. malayi; 48 hrs post-inoculation, 0.0016%): 0%; percentage of non-motile microfilaria (B. malayi; 48 hrs post-inoculation, 0.003%): 5%; percentage of non-motile microfilaria (B. malayi; 48 hrs post-inoculation, 0.005%): 100%; percentage of non-motile microfilaria (B. malayi; 48 hrs post-inoculation, 0.0067%): 100%; percentage of non-motile microfilaria (B. malayi; 48 hrs post-inoculation, 0.008%): 100%; % Worm Death (48 hr) (M. javanica [6]; 0.01% solution): 60%; % Worm Death (24 hr) (P. trichosuri; 0.01% solution): ˜90%; % Worm Death (24 hr) (P. trichosuri; 0.1% solution): ˜95% |
| CCCCCCCCC(=O)OC [Nonanoic (C9-methyl ester), pelargonic acid methyl ester, reference compound] | 100% | >95% | 100% | 100% | <20% | <20% | 50% | 50% | 50% | 100% | 100% | 100% | 100% | significant nematicidal activity | 100% | 30% | 100% | 100% | % Worm Death (24 hr) (C. elegans [8]; 0.001% solution): 30%; % Worm Death (24 hr) (C. elegans [8]; 0.01% solution): 100%; % Worm Death (24 hr) (C. elegans [8]; 0.1% solution): 100%; Nematicidal activity (in words) (C. elegans [3]; concentration of 0.1%): strongly nematicidal; Onset of effect on nematode movement (in words) (C. elegans [3]; emulsion, C. elegans): almost immediate cessation of nematode movement and subsequent death; Phytotoxic effect on tomato seedlings (tomato seedlings; within 18 hours of application): distinct loss of turgor pressure (wilting phenotype); Phytotoxic effect on tomato seedlings (tomato seedlings; within 24 hours): almost entirely bleached to a pale white color and had nearly totally collapsed; Visible effects on tomato seedlings (tomato seedlings; 250 μl of 1% emulsion applied to stem-media interface of two-week seedlings): showed obvious effects on the tomatoes |
